Here are results for one compound from PMC8799717, “Pharmacological targeting PIKfyve and tubulin as an effective treatment strategy for double-hit lymphoma” (Cell Death Discovery, 2022).

Among the targets are CDKL2 (Homo sapiens, UniProt Q92772); EPHA1 (Homo sapiens, UniProt P21709); TXK (Homo sapiens, UniProt P42681); TAOK3 (Homo sapiens, UniProt Q9H2K8); FLT1 (Homo sapiens, UniProt P17948); EPHB1 (Homo sapiens, UniProt P54762); DAPK2 (Homo sapiens, UniProt Q9UIK4); CLK1 (Homo sapiens, UniProt P49759); NEK3 (Homo sapiens, UniProt P51956); ROS1 (Homo sapiens, UniProt P08922); CDK8 (Homo sapiens, UniProt P49336); HUNK (Homo sapiens, UniProt P57058); TLK1 (Homo sapiens, UniProt Q9UKI8); PIP5K1C (Homo sapiens, UniProt O60331); DYRK1A (Homo sapiens, UniProt Q13627); PAK3 (Homo sapiens, UniProt O75914).

Test in all cases: biochemical
Holding throughout (design): KINOMEscan active-site-directed competition binding panel, 468 kinases, percent of DMSO control at 1 uM
Holding throughout (conditions): KINOMEscan binding, percent of DMSO control; read-out: Ctrl%

In another experiment the target is T1, YSK1 (Homo sapiens, UniProt O00506).
T1 construct: gene STK25

For a further experiment, the target named is T2, VEGFR2 (Homo sapiens, UniProt P35968).
T2 construct: gene KDR

The next experiment has as its target T3, OSR1 (Homo sapiens, UniProt O95747).
T3 construct: gene OXSR1

A further experiment deals with T4, ERK3 (Homo sapiens, UniProt Q16659).
T4 construct: gene MAPK6

Another experiment concerns the target T5, PFTK1 (Homo sapiens, UniProt O94921).
T5 construct: gene CDK14

Experiment [1] has as its target T6, TYK2(JH2domain-pseudokinase) (Homo sapiens, UniProt P29597).
T6 construct: JH2domain-pseudokinase

The next experiment addresses T7, PCTK3 (Homo sapiens, UniProt Q07002).
T7 construct: gene CDK18

Another experiment deals with T8, p38-delta (Homo sapiens, UniProt O15264).
T8 construct: gene MAPK13
T8 sequence (O15264 whole entry): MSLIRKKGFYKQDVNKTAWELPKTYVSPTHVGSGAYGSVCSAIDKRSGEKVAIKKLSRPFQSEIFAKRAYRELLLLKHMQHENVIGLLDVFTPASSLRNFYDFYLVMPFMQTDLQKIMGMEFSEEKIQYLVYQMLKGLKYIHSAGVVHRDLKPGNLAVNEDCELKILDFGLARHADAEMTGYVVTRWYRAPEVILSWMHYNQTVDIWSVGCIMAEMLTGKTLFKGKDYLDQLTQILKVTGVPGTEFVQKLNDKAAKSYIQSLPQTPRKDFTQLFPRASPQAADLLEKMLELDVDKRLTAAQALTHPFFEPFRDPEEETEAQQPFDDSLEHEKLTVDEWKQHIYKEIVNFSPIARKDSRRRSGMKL

Sequence of FLT1 (P17948 whole entry): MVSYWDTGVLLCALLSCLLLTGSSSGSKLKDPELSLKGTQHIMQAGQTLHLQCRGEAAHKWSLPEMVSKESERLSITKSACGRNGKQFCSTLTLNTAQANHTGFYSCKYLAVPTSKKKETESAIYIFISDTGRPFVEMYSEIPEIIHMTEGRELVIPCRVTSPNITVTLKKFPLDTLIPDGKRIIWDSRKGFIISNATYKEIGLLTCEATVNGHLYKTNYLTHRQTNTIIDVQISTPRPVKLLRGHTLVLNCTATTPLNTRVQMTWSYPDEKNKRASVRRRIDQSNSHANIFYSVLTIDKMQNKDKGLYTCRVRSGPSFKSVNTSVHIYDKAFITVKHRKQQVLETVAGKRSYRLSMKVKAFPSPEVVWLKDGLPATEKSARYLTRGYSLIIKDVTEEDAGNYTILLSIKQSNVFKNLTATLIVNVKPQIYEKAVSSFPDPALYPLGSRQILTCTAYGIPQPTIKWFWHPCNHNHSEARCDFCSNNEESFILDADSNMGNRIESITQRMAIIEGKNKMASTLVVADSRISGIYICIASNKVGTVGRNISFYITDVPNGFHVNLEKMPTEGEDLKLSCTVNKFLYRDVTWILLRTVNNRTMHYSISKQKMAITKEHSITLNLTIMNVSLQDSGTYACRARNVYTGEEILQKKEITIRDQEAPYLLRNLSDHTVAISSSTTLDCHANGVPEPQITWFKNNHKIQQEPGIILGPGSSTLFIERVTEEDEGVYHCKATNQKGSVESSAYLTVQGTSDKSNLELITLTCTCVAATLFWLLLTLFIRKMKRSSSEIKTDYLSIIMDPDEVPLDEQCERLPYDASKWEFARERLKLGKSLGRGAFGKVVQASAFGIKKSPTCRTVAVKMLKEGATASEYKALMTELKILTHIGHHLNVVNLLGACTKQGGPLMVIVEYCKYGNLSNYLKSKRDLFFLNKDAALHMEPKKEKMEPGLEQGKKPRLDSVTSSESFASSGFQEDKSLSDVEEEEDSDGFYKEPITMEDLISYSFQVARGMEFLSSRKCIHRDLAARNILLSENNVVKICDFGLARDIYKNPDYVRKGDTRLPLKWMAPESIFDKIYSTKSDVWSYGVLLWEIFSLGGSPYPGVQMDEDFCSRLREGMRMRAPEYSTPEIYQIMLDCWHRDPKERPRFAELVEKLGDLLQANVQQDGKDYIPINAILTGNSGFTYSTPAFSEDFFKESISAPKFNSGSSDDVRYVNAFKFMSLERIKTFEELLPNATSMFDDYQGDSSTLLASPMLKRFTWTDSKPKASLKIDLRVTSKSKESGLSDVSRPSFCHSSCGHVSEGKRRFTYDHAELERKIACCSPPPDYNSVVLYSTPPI
T2 sequence (P35968 whole entry): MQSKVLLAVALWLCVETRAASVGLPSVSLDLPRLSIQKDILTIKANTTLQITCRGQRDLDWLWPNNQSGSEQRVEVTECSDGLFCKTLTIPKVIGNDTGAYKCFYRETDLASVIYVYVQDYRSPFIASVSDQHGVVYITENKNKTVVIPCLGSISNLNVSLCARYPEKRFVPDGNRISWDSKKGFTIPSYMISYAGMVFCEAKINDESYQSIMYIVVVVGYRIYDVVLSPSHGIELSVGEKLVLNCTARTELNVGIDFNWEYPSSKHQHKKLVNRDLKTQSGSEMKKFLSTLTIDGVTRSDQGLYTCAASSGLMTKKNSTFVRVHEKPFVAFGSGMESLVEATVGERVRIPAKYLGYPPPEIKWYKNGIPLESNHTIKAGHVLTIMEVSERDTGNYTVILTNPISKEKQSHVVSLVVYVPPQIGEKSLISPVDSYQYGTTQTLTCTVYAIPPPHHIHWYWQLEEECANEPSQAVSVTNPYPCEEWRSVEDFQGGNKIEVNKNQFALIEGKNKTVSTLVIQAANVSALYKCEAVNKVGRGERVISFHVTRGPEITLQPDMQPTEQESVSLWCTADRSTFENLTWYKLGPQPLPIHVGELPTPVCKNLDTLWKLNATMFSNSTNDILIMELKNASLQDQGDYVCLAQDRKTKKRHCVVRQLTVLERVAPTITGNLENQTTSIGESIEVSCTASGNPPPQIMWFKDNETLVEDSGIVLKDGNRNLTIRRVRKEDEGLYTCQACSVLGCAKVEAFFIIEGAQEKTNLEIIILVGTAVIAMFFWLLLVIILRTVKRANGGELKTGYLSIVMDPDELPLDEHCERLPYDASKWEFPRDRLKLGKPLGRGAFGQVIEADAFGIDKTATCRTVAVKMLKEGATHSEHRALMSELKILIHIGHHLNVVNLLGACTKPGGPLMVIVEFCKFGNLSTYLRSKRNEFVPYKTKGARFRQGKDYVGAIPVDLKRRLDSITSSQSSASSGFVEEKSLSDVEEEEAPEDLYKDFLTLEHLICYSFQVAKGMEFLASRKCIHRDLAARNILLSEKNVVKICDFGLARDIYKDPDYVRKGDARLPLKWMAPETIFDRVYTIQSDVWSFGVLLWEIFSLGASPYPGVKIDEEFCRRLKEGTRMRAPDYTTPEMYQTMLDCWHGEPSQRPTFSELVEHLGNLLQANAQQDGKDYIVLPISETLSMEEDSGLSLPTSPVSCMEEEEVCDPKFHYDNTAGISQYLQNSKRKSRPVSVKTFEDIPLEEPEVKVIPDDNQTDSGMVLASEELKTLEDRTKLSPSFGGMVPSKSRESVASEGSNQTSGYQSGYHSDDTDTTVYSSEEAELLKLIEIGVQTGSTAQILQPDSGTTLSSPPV
T6 sequence (P29597 whole entry): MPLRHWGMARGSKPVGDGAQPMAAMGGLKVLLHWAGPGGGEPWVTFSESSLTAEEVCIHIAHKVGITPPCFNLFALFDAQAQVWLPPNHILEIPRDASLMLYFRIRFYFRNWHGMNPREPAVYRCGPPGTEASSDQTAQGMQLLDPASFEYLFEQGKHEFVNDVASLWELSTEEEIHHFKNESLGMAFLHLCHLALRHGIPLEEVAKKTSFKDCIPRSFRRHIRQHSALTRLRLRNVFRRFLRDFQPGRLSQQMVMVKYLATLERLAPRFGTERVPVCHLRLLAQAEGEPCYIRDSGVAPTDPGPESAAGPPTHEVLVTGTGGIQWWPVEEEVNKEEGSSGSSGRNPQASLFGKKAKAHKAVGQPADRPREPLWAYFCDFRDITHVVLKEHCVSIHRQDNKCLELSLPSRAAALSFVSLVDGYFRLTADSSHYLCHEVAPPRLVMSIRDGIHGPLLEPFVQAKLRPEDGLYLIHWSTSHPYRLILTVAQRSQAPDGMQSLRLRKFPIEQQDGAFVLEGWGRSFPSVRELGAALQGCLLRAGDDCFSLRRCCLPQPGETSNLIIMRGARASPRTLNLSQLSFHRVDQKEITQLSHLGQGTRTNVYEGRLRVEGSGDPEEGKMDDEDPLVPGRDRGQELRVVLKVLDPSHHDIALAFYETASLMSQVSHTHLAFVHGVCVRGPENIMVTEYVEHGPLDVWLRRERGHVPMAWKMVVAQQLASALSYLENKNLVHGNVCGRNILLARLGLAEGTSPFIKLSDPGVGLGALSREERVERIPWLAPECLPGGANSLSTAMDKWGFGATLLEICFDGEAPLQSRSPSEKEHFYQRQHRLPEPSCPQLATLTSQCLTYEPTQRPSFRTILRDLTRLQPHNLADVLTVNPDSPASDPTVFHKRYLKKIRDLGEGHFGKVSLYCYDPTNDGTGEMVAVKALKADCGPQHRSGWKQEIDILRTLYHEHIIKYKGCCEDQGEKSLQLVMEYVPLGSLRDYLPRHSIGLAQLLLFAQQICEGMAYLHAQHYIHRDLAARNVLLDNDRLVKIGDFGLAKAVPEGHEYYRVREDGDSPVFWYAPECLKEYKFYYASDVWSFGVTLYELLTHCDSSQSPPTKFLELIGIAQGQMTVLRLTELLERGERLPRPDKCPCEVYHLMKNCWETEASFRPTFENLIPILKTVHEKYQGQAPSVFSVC
T5 sequence (O94921 whole entry): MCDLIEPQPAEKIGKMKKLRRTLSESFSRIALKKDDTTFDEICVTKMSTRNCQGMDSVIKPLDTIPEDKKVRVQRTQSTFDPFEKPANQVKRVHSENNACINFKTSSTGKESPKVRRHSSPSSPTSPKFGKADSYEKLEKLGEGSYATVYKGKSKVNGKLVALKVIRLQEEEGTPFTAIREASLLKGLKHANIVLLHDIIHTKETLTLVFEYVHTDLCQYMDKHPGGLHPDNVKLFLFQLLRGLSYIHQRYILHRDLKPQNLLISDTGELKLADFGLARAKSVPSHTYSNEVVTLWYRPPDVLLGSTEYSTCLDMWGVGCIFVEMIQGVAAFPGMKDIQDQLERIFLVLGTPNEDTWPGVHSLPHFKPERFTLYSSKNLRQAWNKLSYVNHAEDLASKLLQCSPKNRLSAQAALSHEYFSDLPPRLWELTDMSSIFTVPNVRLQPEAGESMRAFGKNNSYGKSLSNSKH
Sequence of DAPK2 (Q9UIK4 whole entry): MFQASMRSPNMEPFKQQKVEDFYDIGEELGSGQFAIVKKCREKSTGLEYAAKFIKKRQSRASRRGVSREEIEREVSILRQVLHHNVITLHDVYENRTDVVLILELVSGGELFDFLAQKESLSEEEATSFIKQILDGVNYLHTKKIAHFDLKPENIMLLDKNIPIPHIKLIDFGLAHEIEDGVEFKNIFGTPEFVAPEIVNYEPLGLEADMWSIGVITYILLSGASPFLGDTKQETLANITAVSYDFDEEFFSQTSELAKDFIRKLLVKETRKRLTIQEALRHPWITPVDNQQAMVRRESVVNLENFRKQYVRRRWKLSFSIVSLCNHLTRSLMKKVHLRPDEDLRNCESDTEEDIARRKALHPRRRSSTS

Take `Cc1ccc(NC(=O)c2cccc(C(F)(F)F)c2)cc1Nc1cc(-c2cccnc2)nc2[nH]ccc12` [HZX-02-059]: the remaining binding at 1 µM on CDKL2 came out at 99%; at EPHA1 it was 78%; at TXK it was 78%; on TAOK3 it was 100%; at FLT1, 96%; on EPHB1, 39%. Also, the remaining binding at 1 µM worked out at 100% on DAPK2; 94% on YSK1; 96% at CLK1; 100% at VEGFR2; 54% at NEK3; 97% at OSR1. Moreover, the remaining binding at 1 µM at ROS1 turned out to be 72%; on CDK8 it was 91%; on ERK3 it was 100%; on HUNK, 91%; at TLK1, 95%; on PFTK1 it was 98%. Also, the remaining binding at 1 µM on PIP5K1C came out at 73%; in [1], 92%; on DYRK1A, 85%; at PAK3, 27%; on PCTK3, 84%; on p38-delta, 87%.
